Converted amounts (≈) assume the structure as drawn.
Experiments:
[1] = Ring stability to hydrolysis, UV absorption changes with time; type: physicochemical; settings: equal volumes methanol-aqueous phosphate buffer (pH 8); for remaining at 1 h: read-out: % Compound Remaining after 1 hr; for remaining at 16 h: read-out: % Compound Remaining after 16 hr; for remaining at 48 h: read-out: % Compound Remaining after 48 hr; for remaining at 165 h: read-out: % Compound Remaining after 165 hr; for remaining at 336 h: read-out: % Compound Remaining after 336 hr
Experimental: Solutions of these compounds were prepared using equal volumes of methanol-aqueous phosphate buffer (pH 8), and decomposition by cleavage of the heterocyclic ring was monitored using ultraviolet absorption changes with time.

[2] = tested on: Sclerotinia sclerotiorum MF 4739; assay: In vitro minimal inhibitory concentration in nutrient agar; type: cell-based; settings: MF4739
Alternaria citri MF 2970 = assay: as above; type: cell-based; settings: MF2970
[3] = tested on: Penicillium digitatum MF 4590; assay: as above; type: cell-based; settings: MF4590
Monilia nigra MF 3084 = assay: as above; type: cell-based; settings: Moniliella suaveolens, MF3084
Aspergillus niger MF 11 = assay: as above; type: cell-based; settings: MF11
[4] = tested on: Verticillium dahliae MF 2416; assay: as above; type: cell-based; settings: MF2416
[5] = tested on: Thielaviopsis basicola MF 3147; assay: as above; type: cell-based; settings: Berkeleyomyces basicola, MF3147
[6] = tested on: Cladosporium Fulvum MF 3238; assay: as above; type: cell-based; settings: Fulvia fulva
[7] = tested on: Helminthosporium maydis MF 4775; assay: as above; type: cell-based; settings: Bipolaris maydis, MF4775
[8] = tested on: Colletotrichum lagenarium MF 4800; assay: as above; type: cell-based; settings: Colletotrichum orbiculare, MF4800
Botrytis cinerea MF 4803 = assay: as above; type: cell-based; settings: MF4803
[9] = tested on: Helminthosporium oryzae MF 4806; assay: as above; type: cell-based; settings: Bipolaris oryzae, MF4806
[10] = tested on: Fusarium oxysporum MF 3413; assay: as above; type: cell-based; settings: MF3413
[11] = tested on: Phytophthora cambivora MF 3753; assay: as above; type: cell-based
[12] = tested on: Diaperthe phaseolorum MF 4668; assay: as above; type: cell-based
[13] = tested on: Rhizoctonia solani MF 4579; assay: as above; type: cell-based; settings: MF4579
[14] = tested on: Cercospora beticola MF 4571; assay: as above; type: cell-based; settings: MF4571

Which “% Compound Remaining after 0 hr” value [1] does the source give for `CCCc1nsn(Cc2ccccc2)c1=O` here?
Its value is 100%.

What about the remaining at 1 h [1] of the same molecule?
The remaining at 1 h was 100%.

And the remaining at 16 h [1]?
The remaining at 16 h was 100%.

What about the remaining at 48 h [1] of the same molecule?
The remaining at 48 h was 100%.

What about the remaining at 165 h [1] of the same molecule?
Its remaining at 165 h is 90%.

What about the remaining at 336 h [1] of the same molecule?
The remaining at 336 h was 90%.

With `O=c1cnsn1Cc1ccccc1` as the molecule, how does the “% Compound Remaining after 0 hr” value [1] read?
The value was 100%.

What about the remaining at 1 h [1] of the same molecule?
The remaining at 1 h was 100%.

What about the remaining at 16 h [1] of the same molecule?
The remaining at 16 h was 96%.

And the remaining at 48 h [1]?
Its remaining at 48 h is 80%.

And the remaining at 165 h [1]?
The remaining at 165 h was 50%.

What about the remaining at 336 h [1] of the same molecule?
The remaining at 336 h was 26%.

Which results are given for `Cc1nsn(Cc2ccc(Cl)cc2)c1=O` [2-[(4-Chlorophenyl)methyl]-4-methyl-1,2,5-thiadiazol-3(2H)-one]?
MIC [2]: 0.8 µg/mL (≈ 3.32 µM); MIC (Alternaria citri MF 2970): 4 µg/mL (≈ 16.6 µM); MIC [3]: 4 µg/mL (≈ 16.6 µM); MIC (Monilia nigra MF 3084): 2 µg/mL (≈ 8.31 µM); MIC (Aspergillus niger MF 11): 4 µg/mL (≈ 16.6 µM); MIC [4]: 4 µg/mL (≈ 16.6 µM); MIC [5]: 4 µg/mL (≈ 16.6 µM); MIC [6]: 1 µg/mL (≈ 4.15 µM); MIC [7]: 0.4 µg/mL (≈ 1.66 µM); MIC [8]: 2 µg/mL (≈ 8.31 µM); MIC (Botrytis cinerea MF 4803): 1 µg/mL (≈ 4.15 µM); MIC [9]: 1 µg/mL (≈ 4.15 µM); MIC [10]: 4 µg/mL (≈ 16.6 µM); MIC [11]: 2 µg/mL (≈ 8.31 µM); MIC [12]: 0.4 µg/mL (≈ 1.66 µM); MIC [13]: 8 µg/mL (≈ 33.2 µM); MIC [14]: 1 µg/mL (≈ 4.15 µM)

With `CCCCCCn1snc(C)c1=O` [CH3, n-C6 H13, 2-n-Hexyl-4-methyl-1,2,5-thiadiazol-3(2H)-one] as the molecule, how does the “% Compound Remaining after 0 hr” value [1] read?
Its value is 100%.

And the remaining at 1 h [1]?
The remaining at 1 h was 100%.

What about the remaining at 16 h [1] of the same molecule?
The remaining at 16 h was 100%.

And the remaining at 48 h [1]?
Its remaining at 48 h is 100%.

What about the remaining at 165 h [1] of the same molecule?
The remaining at 165 h was 100%.

What about the remaining at 336 h [1] of the same molecule?
The remaining at 336 h was 99%.

Which “% Compound Remaining after 0 hr” value [1] does the source give for `Cc1nsn(Cc2ccc(Cl)cc2)c1=O` [drawing 23] here?
The value was 100%.

And the remaining at 1 h [1]?
Its remaining at 1 h is 100%.

And the remaining at 16 h [1]?
Its remaining at 16 h is 100%.

And the remaining at 48 h [1]?
Its remaining at 48 h is 97%.

And the remaining at 165 h [1]?
Its remaining at 165 h is 93%.

What about the remaining at 336 h [1] of the same molecule?
The remaining at 336 h was 91%.

Which “% Compound Remaining after 0 hr” value [1] does the source give for `O=c1c(Cl)nsn1Cc1ccccc1` [reference compound] here?
Its value is 100%.

And the remaining at 1 h [1]?
The remaining at 1 h was 48%.

And the remaining at 16 h [1]?
Its remaining at 16 h is 6%.

What about the remaining at 48 h [1] of the same molecule?
Its remaining at 48 h is 0%.

With `O=c1c(Cl)nsn1Cc1ccc(Cl)cc1` [reference compound] as the molecule, how does the “% Compound Remaining after 0 hr” value [1] read?
The value was 100%.

And the remaining at 16 h [1]?
Its remaining at 16 h is 0%.

And the remaining at 48 h [1]?
The remaining at 48 h was 0%.
